Source: US10414768B2, “Compounds for treating cystic fibrosis” (CENTRE NATIONAL DE LA RECHERCHE SCIENTIFIQUE (CNRS), priority 2014, dated 2019)

Target: T1, F508del-CFTR (Homo sapiens, UniProt P13569, DEL508-508)
T1 construct: expressed in transfected cells; host or cells: HeLa cells (spTCF-ΔF), selected with Zeocin
Assay: Iodide (125I) efflux from HeLa cells expressing F508del-CFTR
Format: cell-based
Conditions: HeLa, activators Fsk 10 μM + Gst 30 μM, relative to VX809 normalized at 100%, untreated cells 3.6%
Experimental: Pharmacology, chemicals and reagents. The CFTR activator forskolin and potentiator genistein (Illek et al., 1995) were purchased from LC Laboratories (PKC Pharmaceuticals, Woburn, Mass.). We purchased DIDS (5-Isothiocyanato-2-[2-(4-isothiocyanato-2-sulfophenyl)ethenyl]benzene-1-sulfonic acid) and VX809 (3-(6-(1-(2,2-difluorobenzo[d][1,3]dioxol-5-yl)cyclopropanecarboxamido)-3-methylpyridin-2-yl)benzoic acid) from Selleckchem (Houston, USA). Stock solutions of F (10 mM), G (30 mM), CFTRinh-172 (10 mM), VX809 (10 mM), were prepared in DMSO. We prepared stock solution of iminosugars, miglustat and IsoLAB ([1,4-dideoxy-2-hydroxymethyl-1,4-imino-L-threitol]) dissolved in water (100 mM) before further dilution. Methods Cell culture. HeLa cells expressing wild-type CFTR (spTCF-wt) or F508del-CFTR (spTCF-ΔF) were cultured in Dulbecco's modified Eagle's medium+GlutaMAX™-I (Invitrogen) supplemented with 8% (v/v) fetal bovine serum (FBS), 1% (v/v) penicillin/streptomycin and were selected using Zeocin (50 μg/mL). Both cell lines were grown in standard culture conditions (37° C., 5% C02). Cells were plated in 35 mm plastic dishes for whole-cell patch-clamp recordings and western blot analysis and in 96-well plates for cytotoxicity assay. For all cell culture, culture media were renewed every 2 days. Western Blot analysis. Cell lysates (10 mM Tris, 1% Nonidet P-40, 0.5% sodium deoxycholate, pH 7.5) were separated 72 h after seeding for HeLa cells by 5% SDS-PAGE (50 μg of protein/well). After saturation, nitrocellulose membrane was incubated overnight at 4° C. in phosphate-buffered saline, 0.1% Tween 20 with 1 μg/ml mouse anti-CFTR monoclonal antibody (clone MAB3480; Chemicon International, Millipore Bioscience Research Reagents, Temecula, Calif.). After washing, goat peroxidase-conjugated anti-mouse IgG (1:10 000; Sigma-Aldrich) was used as secondary antibody. CFTR was visualized by chemiluminescence with ECL Western blotting detection reagent (GE Healthcare, Buckinghamshire, UK). Iodide efflux. CFTR chloride channel activity was assayed by measuring the rate of iodide (^125I) efflux from living cells. All experiments were performed with a MultiPROBE® IIex robotic liquid handling system (Perkin Elmer Life Sciences, Courtaboeuf, France). At the beginning of each experiment, cells were washed twice with efflux buffer containing (in mM) 136.9 NaCl, 5.4 KCl, 0.3 KH2PO4, 0.3 NaH2PO4, 1.3 CaCl2, 0.5 MgCl2, 0.4 MgSO4, 5.6 glucose and 10 HEPES, pH 7.4. Cells were incubated in efflux buffer containing Na^125I (1 μCi Na^125I/ml, NEN, Boston, Mass.) during 1 h at 37° C., then washed with efflux medium to remove extracellular ^125I. The loss of intracellular ^125I was determined by removing the medium with efflux buffer every 1 min for up to 10 min. The first three aliquots were used to establish a stable baseline in efflux buffer alone. A medium containing the activators of CFTR (Fsk 10 μM+Gst 30 μM) and the appropriate drug was used for the remaining aliquots. Residual radioactivity was extracted with 0.1 N NaOH/0.1% SDS, and determined using a Packard Cobra™ II gamma counter (Perkin Elmer life Sciences, Courtaboeuf, France). The fraction of initial intracellular ^125I lost during each time point was collected and time-dependent rates of ^125I efflux calculated from: ln (^125It1/^125It2)/(t1−t2) where ^125It is the intracellular ^125I at time t, and t1 and t2 successive time points. Curves were constructed by plotting rate of 125I versus time. All comparisons were based on maximal values for the time-dependent rates (k=peak rates, min−1) excluding the points used to establish the baseline (kpeak−kbasal, min^−1), and histograms were presented as percentage of activation. Time dependence. Time dependence of the compounds was assayed by measuring the time necessary for an optimal correction of the protein F508del-CFTR. […]

T1 sequence (P13569 with tags, fused parts or gaps DEL508-508): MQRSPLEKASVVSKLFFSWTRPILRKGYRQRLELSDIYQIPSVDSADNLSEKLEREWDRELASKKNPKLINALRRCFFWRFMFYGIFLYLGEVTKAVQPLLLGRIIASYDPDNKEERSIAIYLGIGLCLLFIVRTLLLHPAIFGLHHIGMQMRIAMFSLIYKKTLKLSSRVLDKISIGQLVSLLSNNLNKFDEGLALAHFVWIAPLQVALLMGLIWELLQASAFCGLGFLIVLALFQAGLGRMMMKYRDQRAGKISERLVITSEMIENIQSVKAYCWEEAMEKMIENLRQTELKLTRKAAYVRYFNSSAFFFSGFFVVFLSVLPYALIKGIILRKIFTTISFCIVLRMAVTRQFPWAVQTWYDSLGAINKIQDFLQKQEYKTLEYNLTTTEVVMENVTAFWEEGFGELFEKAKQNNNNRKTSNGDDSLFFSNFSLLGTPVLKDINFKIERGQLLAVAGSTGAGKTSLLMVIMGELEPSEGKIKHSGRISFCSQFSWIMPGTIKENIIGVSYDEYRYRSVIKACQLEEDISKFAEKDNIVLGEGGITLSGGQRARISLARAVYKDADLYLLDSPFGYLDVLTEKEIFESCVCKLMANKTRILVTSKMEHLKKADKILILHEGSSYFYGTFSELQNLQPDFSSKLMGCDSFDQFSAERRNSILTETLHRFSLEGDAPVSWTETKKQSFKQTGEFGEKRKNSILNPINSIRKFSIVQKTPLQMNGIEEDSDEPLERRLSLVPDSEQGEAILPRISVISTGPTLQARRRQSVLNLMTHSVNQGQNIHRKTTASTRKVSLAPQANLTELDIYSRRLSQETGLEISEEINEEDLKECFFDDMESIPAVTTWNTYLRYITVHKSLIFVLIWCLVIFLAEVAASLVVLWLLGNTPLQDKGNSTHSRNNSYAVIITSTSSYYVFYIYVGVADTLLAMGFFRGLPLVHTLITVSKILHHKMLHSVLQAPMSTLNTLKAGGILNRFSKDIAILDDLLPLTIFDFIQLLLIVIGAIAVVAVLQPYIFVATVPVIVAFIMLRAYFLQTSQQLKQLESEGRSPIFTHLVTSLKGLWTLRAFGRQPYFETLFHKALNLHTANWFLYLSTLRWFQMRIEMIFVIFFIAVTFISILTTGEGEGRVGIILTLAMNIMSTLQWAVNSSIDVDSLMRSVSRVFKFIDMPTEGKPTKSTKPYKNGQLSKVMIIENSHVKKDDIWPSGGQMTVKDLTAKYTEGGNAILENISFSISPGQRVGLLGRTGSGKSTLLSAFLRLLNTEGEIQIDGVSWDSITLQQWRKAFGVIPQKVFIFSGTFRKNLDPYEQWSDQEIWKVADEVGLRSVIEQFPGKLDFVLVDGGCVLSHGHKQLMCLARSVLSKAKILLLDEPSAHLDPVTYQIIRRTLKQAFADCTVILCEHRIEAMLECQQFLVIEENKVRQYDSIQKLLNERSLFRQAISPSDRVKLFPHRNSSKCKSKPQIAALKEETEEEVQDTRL

SMILES	Emax [%]
COc1ccc(CNc2nc(NCCCc3ccccc3)nc3c2ncn3-c2ccc(C(N)=O)cc2)cc1 [Compound 60, 4-(6-((4-methoxybenzyl)amino)-2-((3-phenylpropyl)amino)-9H-purin-9-yl)benzamide]	35 to 60
C[C@H](Nc1nc(NCCCc2ccccc2)nc2c1ncn2Cc1ccccc1)C(=O)O [Compound 6, (S)-2-((9-benzyl-2-((3-phenylpropyl)amino)-9H-purin-6-yl)amino)propanoic acid]	10 to 35
NC(=O)c1ccc(-n2cnc3cnc(N)nc32)cc1 [Compound 63, 4-(2-amino-9H-purin-9-yl)benzamide]	10 to 35
NC(=O)c1ccc(-n2cnc3c(Cl)ncnc32)cc1 [Compound 16, 4-(6-chloro-9H-purin-9-yl)benzamide]	10 to 35
COC(=O)c1ccc(-n2cnc3c(O)nc(N)nc32)cc1 [Compound 31, methyl 4-(2-amino-6-hydroxy-9H-purin-9-yl)benzoate]	10 to 35
COc1ccc(CNc2nc(Cl)nc3[nH]cnc23)cc1 [Compound 9, 2-chloro-N-(4-methoxybenzyl)-9H-purin-6-amine]	10 to 35
NC(=O)c1ccc(-n2cnc3c(N)nc(Cl)nc32)cc1 [Compound 18, 4-(6-amino-2-chloro-9H-purin-9-yl)benzamide]	35 to 60
Nc1nc(OCCCc2ccccc2)nc2[nH]cnc12 [Compound 53, 2-(3-phenylpropoxy)-9H-purin-6-amine]	10 to 35
NC(=O)c1ccc(Oc2ncnc(Cl)c2N)cc1 [Compound 55, 4-((5-amino-6-chloropyrimidin-4-yl)oxy)benzamide]	≥ 60
Nc1c(Cl)ncnc1Nc1ccc(S(N)(=O)=O)cc1 [Compound 56, 4-((5-amino-6-chloropyrimidin-4-yl)amino)benzenesulfonamide]	≥ 60
COc1ccc(CNc2nc(NCCCc3ccccc3)nc3c2ncn3Cc2ccccc2)cc1 [Compound 5, 9-benzyl-N^6-(4-methoxybenzyl)-N^2-(3-phenylpropyl)-9H-purine-2,6-diamine]	35 to 60
C[C@H](Nc1nc(NCCCc2ccccc2)nc2c1ncn2-c1ccc(CO)cc1)C(=O)O [Compound 57, (S)-2-((9-(4-(hydroxymethyl)phenyl)-2-((3-phenylpropyl)amino)-9H-purin-6-yl)amino)propanoic acid]	≥ 60
COc1ccc(CNc2nc(OCCCc3ccccc3)nc3[nH]cnc23)cc1 [Compound 11, N-(4-methoxybenzyl)-2-(3-phenylpropoxy)-9H-purin-6-amine]	≥ 60
NS(=O)(=O)c1ccc(-n2nnc3c(Cl)ncnc32)cc1 [Compound 64, 4-(7-chloro-3H-[1,2,3]triazolo[4,5-d]pyrimidin-3-yl)benzenesulfonamide]	10 to 35
Nc1nc(O)c2ncn(-c3ccc(C(=O)O)cc3)c2n1 [Compound 29, 4-(2-amino-6-hydroxy-9H-purin-9-yl)benzoic acid]	≥ 60
CCN(CC)c1nc(Cl)nc2c1ncn2-c1ccc(C(N)=O)cc1 [Compound 17, 4-(2-chloro-6-(diethylamino)-9H-purin-9-yl)benzamide]	10 to 35
NC(=O)c1ccc(-n2cnc3c(N[C@@H](CO)C(=O)O)nc(Cl)nc32)cc1 [Compound 22, (S)-2-((9-(4-carbamoylphenyl)-2-chloro-9H-purin-6-yl)amino)-3-hydroxypropanoic acid]	35 to 60
COc1nc(N)nc2c1ncn2-c1ccc(C(N)=O)cc1 [Compound 62, 4-(2-amino-6-methoxy-9H-purin-9-yl)benzamide]	10 to 35
Nc1nc(Cl)c(N)c(Cl)n1 [Compound 48, 4,6-dichloropyrimidine-2,5-diamine]	≥ 60

The remaining lines, values ahead:

Emax [%]	SMILES
≥ 60	NC(=O)c1ccc(Nc2ncncc2N)cc1 [Compound 107, 4-((5-aminopyrimidin-4-yl)amino)benzamide]
10 to 35	COc1ccc(CNc2nc(NCc3ccc(OC)cc3)c3nc[nH]c3n2)cc1 [Compound 88, N2,N6-bis(4-methoxybenzyl)-9H-purine-2,6-diamine]
≥ 60	NC(=O)c1ccc(-c2ccnc3ccccc23)cc1 [Compound II-1, 4-(quinolin-4-yl)benzamide]
≥ 60	Nc1ncnc(N)c1N [Compound 102, pyrimidine-4,5,6-triamine]
≥ 60	NC(=O)c1ccc(Nc2ccncc2[N+](=O)[O-])cc1 [Compound 105, 4-((3-nitropyridin-4-yl)amino)benzamide]
35 to 60	NC(=O)c1ccc(-n2cnc3cncnc32)cc1 [Compound 116, 4-(9H-purin-9-yl)benzamide]
10 to 35	Nc1nc(O)c2ncn(-c3ccccc3)c2n1 [Compound 92, 2-amino-9-phenyl-9H-purin-6-ol]
10 to 35	NC(=O)c1ccc(-n2c(=O)[nH]c3c(Cl)ncnc32)cc1 [Compound 122, 4-(6-chloro-8-oxo-7H-purin-9(8H)-yl)benzamide]
35 to 60	Nc1nc(NCCc2ccc(F)cc2)nc2[nH]cnc12 [Compound 104, N2-(4-fluorophenethyl)-9H-purine-2,6-diamine]
10 to 35	COc1ccc(CNc2nc(Cl)nc3c2ncn3C2CCCCO2)cc1 (stereo not shown) [Compound 97, 2-chloro-N-(4-methoxybenzyl)-9-(tetrahydro-2H-pyran-2-yl)-9H-purin-6-amine]
35 to 60	Nc1nc(Nc2ccc(CO)cc2)c2ncn(-c3ccc(CO)cc3)c2n1 [Compound 117, (4-(2-amino-6-((4-(hydroxymethyl)phenyl)-amino)-9H-purin-9-yl)phenyl)methanol]
10 to 35	NC(=O)c1ccc(-n2ccc3c(Cl)ncnc32)cc1 [Compound 112, 4-(4-chloro-7H-pyrrolo[2,3-d]pyrimidin-7-yl)benzamide]
10 to 35	CC(=O)c1ccc(-n2cnc3c(Cl)nc(Cl)nc32)cc1 [Compound 86, 1-(4-(2,6-dichloro-9H-purin-9-yl)phenyl)ethanone]
10 to 35	Nc1c(Cl)ncnc1Nc1ccc(F)cc1 [Compound 110, 6-chloro-N4-(4-fluorophenyl)pyrimidine-4,5-diamine]
10 to 35	NC(=O)c1ccc(Sc2ncnc(Cl)c2N)cc1 [Compound 108, 4-((5-amino-6-chloropyrimidin-4-yl)thio)benzamide]
10 to 35	COc1ccc(CNc2nc(OCCc3ccccc3)nc3c2ncn3C2CCCCO2)cc1 (stereo not shown) [Compound 98, N-(4-methoxybenzyl)-2-phenethoxy-9-(tetrahydro-2H-pyran-2-yl)-9H-purin-6-amine]
≥ 60	CN(c1ccc(C(N)=O)cc1)c1ncnc(Cl)c1N [Compound 126, 4-((5-amino-6-chloropyrimidin-4-yl)(methyl)amino)benzamide]
35 to 60	Nc1cncnc1Cl [Compound 111, 4-chloropyrimidin-5-amine]
10 to 35	NC(=O)c1ccc(Nc2ncnc(Cl)c2[N+](=O)[O-])cc1 [Compound 106, 4-((6-chloro-5-nitropyrimidin-4-yl)amino)benzamide]
≥ 60	NC(=O)c1ccc(-c2nc(N)c3nc[nH]c3n2)cc1 [Compound 130, 4-(6-amino-9H-purin-2-yl)benzamide]

Same assay, conditions: activators Fsk 10 μM + Gst 30 μM, relative to VX809 normalized at 100%, untreated cells 3.6%

Iodide efflux	SMILES
+++ (+++≥60%)	CSc1ncnc(Nc2ccc(C(N)=O)cc2)c1N [Compound 129, 4-((5-amino-6-(methylthio)pyrimidin-4-yl)amino)benzamide]
